Reference: the supplement of paper PMC10307832

How the values were obtained:
Test in all cases: relative viability (nuclei count vs DMSO), 5 days (fraction); higher = more cells survive
[1] = compound: COC1=C(C=C(C=C1)C2=CC3=NC=CN3C(=N2)NC4=C(C=CC=N4)C(=O)N)OC [BAY61-3606] + CS(=O)(=O)N1CCN(Cc2cc3nc(-c4cccc5[nH]ncc45)nc(N4CCOCC4)c3s2)CC1 [Pictilisib] (partner 1 µM)
Procedure, shortened: (§1)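 Relative viability divides the nuclei count in treated wells by that in vehicle wells. Lung cancer cell lines were seeded in 1536-well plates, dosed by pin tool the next day, and fixed and stained after 5 days in one step with final 0.05% Triton X-100, 1% formaldehyde and 1 ug/ml Hoechst. Dosing was a single drug or a fixed anchor-drug dose plus five library-drug doses (not always all listed) in √10 steps, and values are medians of duplicate plates imaged at 4×.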

[2] = compound: COc1cccc2c1C(=O)c1c(O)c3c(c(O)c1C2=O)C[C@@](O)(C(=O)CO)C[C@@H]3O[C@H]1C[C@H](N)[C@H](O)[C@H](C)O1 [Doxorubicin] + N=C(N)NC(=N)NCCc1ccccc1 [Phenformin] (partner 250 µM)
Procedure, shortened: as §1

[3] = compound: COC1=C(C=C(C=C1)C2=CC3=NC=CN3C(=N2)NC4=C(C=CC=N4)C(=O)N)OC [BAY61-3606] + CC(=O)Nc1cccc(-n2c(=O)n(C3CC3)c(=O)c3c(Nc4ccc(I)cc4F)n(C)c(=O)c(C)c32)c1 [Trametinib] (partner 0.02 µM)
Procedure, shortened: as §1

[4] = compound: COC1=C(C=C(C=C1)C2=CC3=NC=CN3C(=N2)NC4=C(C=CC=N4)C(=O)N)OC [BAY61-3606] + NC(=O)Nc1cc(-c2cccc(F)c2)sc1C(=O)N[C@H]1CCCNC1 [AZD7762] (partner 0.2 µM)
Procedure, shortened: as §1

Cell Line	relative viability ([1]; first compound 0.02 µM)	relative viability ([1]; first compound 0.06325 µM)	relative viability ([1]; first compound 0.2 µM)	relative viability ([1]; first compound 0.6325 µM)	relative viability ([1]; first compound 2 µM)	relative viability ([2]; first compound 0.001 µM)	relative viability ([2]; first compound 0.003162 µM)	relative viability ([2]; first compound 0.01 µM)	relative viability ([2]; first compound 0.03162 µM)	relative viability ([2]; first compound 0.1 µM)	relative viability ([3]; first compound 0.02 µM)	relative viability ([3]; first compound 0.06325 µM)	relative viability ([3]; first compound 0.2 µM)	relative viability ([3]; first compound 0.6325 µM)	relative viability ([3]; first compound 2 µM)	relative viability ([4]; first compound 0.02 µM)	relative viability ([4]; first compound 0.06325 µM)	relative viability ([4]; first compound 0.2 µM)	relative viability ([4]; first compound 0.6325 µM)	relative viability ([4]; first compound 2 µM)
NCI-H1993	0.871	0.764	0.755	0.868	0.804	0.508	0.494	0.455	0.491	0.453	0.498	0.507	0.544	0.538	0.518	0.823	0.824	0.614	0.869	0.739
CAL-12T	0.553	0.348	0.414	0.392	0.346	0.514	0.538	0.412	0.221	0.129	0.359	0.372	0.346	0.347	0.229	0.693	0.577	0.677	0.634	0.71
NCI-H1623						0.533	0.561	0.575	0.528	0.502										
HCC-78	0.297	0.226	0.251	0.158	0.167	0.778	0.768	0.659	0.706	0.625	0.763	0.745	0.738	0.836	0.859	0.645	0.51	0.652	0.487	0.674
EKVX	0.415	0.404	0.407	0.411	0.388	0.255	0.236	0.237	0.245	0.22	0.497	0.308	0.303	0.361	0.365	0.742	0.673	0.644	0.753	0.665
NCI-H1666	0.521		0.447	0.375	0.395	0.604	0.504	0.481	0.368	0.337	0.828	0.973	0.822	0.792	0.768	0.917	0.895	0.852	0.834	0.82
NCI-H2170	0.368	0.28	0.308	0.389	0.265	0.379	0.388	0.411	0.485	0.432	0.859	0.879	0.907	0.916	0.762	0.895	0.913	0.885	0.85	0.585
NCI-H1734	0.46	0.459	0.485	0.406	0.324	0.385	0.413	0.356	0.262	0.261	0.708	0.667	0.636	0.671	0.568	0.554	0.508	0.557	0.502	0.374
Calu-6	0.963	1.01	0.957	0.932	0.659															
EBC-1	0.463	0.359	0.404	0.547	0.411															
NCI-H596	0.41	0.387	0.386	0.416	0.408	0.696	0.882	0.742	0.558	0.755	0.879	0.793	0.701	1.01	0.696	1.04	0.929	1.13	1.7	0.846
A-427	0.846	0.709	0.744	0.751	0.646	0.263	0.337	0.292	0.337	0.33	0.902	0.755	0.782	0.798	0.817	0.831	0.689	0.659	0.752	0.682
NCI-H3122	0.621	0.632	0.568	0.59	0.619	0.369	0.365	0.337	0.245	0.148	0.235	0.24	0.246	0.242	0.249	0.989	0.968	0.962	1.02	0.945
NCI-H1437	0.532	0.44	0.507	0.442	0.391	0.317	0.269	0.242	0.256	0.158	0.537	0.456	0.523	0.602	0.462	1.14	1.08	1.17	1.21	1.12
SK-MES-1	0.393	0.337	0.333	0.354	0.315	0.655	0.648	0.612	0.285	0.222	0.619	0.541	0.518	0.579	0.503					
HCC-366	0.188	0.138	0.107	0.156	0.116		0.614	0.601	0.48	0.395	0.345	0.319	0.327	0.268	0.21	0.286	0.222	0.282	0.265	0.283
NCI-H2347	0.715	0.495	0.801	0.746	0.892	0.434	0.513	0.428	0.374	0.273	0.287	0.332	0.285	0.296	0.244	0.801	0.701	0.73	0.67	0.709
IA-LM	0.351	0.393	0.442	0.54	0.496															
HARA	0.444	0.371	0.372	0.39	0.312	0.424	0.616	0.444	0.409	0.439	0.6	0.52	0.781	0.724	0.54	0.286	0.291	0.452	0.303	0.3
